Results published in patent US20040186166A1, “Cannabinoid analogs as peroxisome proliferator activated nuclear receptor gamma activators” (priority 2002, published 2004).

Tests used:
hRXRα = target: T1, hRXRα (Homo sapiens, UniProt P19793); test: DR1-TK-LUC reporter assay, RXRα; type: cell-based; conditions: saturating concentrations, HEK293 cells
T1 construct: expressed in transfected cells; host or cells: HEK293
T1 sequence (P19793 1-462): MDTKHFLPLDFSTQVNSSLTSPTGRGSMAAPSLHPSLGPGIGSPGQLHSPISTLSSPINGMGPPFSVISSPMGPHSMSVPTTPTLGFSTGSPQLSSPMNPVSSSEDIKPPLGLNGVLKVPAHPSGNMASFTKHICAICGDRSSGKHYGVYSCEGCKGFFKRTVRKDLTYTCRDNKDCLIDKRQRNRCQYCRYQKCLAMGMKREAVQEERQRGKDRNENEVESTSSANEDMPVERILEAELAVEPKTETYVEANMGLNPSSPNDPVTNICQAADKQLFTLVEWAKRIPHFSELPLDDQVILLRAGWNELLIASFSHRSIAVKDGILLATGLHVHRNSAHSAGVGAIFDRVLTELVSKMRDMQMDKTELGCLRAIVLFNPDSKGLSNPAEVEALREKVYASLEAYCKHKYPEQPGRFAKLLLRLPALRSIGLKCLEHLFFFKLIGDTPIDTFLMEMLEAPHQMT

PPARα = target: T2, PPARα (Mus musculus, UniProt P23204); test: PPRE-TK-LUC reporter transient transfection, PPARα; type: cell-based; conditions: 1 to 20 μM AJA
T2 construct: expressed in transfected cells; host or cells: HEK293 / HEK293T
T2 sequence (P23204 1-468): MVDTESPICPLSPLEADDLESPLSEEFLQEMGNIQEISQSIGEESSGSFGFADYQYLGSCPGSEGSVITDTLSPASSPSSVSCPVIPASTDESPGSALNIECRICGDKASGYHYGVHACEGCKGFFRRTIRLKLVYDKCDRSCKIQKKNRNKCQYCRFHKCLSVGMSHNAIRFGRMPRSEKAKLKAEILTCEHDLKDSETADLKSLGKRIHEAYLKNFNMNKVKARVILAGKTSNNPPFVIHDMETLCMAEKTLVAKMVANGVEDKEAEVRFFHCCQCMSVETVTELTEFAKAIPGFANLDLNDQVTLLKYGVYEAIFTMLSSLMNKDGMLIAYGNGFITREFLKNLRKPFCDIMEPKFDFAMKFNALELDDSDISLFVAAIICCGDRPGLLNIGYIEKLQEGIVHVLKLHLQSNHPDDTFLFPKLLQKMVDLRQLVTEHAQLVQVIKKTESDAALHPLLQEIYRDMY
Method: For PPARγ activation assay, HEK293 cells were plated in 12-well cell culture plates and maintained in Dulbecco's modified Eagle's medium (DMEM) supplemented with 10% fetal bovine serum (FBS) at 37° C. under 5% CO2. Cells were changed to phenol red-free DMEM supplemented with 10% charcoal-stripped fetal bovine serum 3 hours before transfection by a standard calcium-phosphate precipitation method. Twelve hours after transfection, the cells were washed with phosphate-buffered saline (PBS) and fed again with fresh medium containing the indicated concentrations of compounds. After 36 hours, cells were harvested for β-galactosidase and luciferase activities as described previously (Li et al., Proc Natl Acad Sci USA 94:8479-84, 1997). The average normalized luciferase activity was determined via triplicate experiments. For IL-8 promoter assay, HeLa cells were maintained and transfected in the same way as described above. After transfection, cells were recovered for 4 hours before treatment with AJA, GW347845, or solvent. After 3-4 hours, cells were treated with or without 25 nM of phorbol myristate acetate (PMA) for 24 hours.
In an effort to confirm that AJA activates PPARγ selectively, the ability of AJA to activate PPARα and PPARδ was analyzed in a similar transient transfection assay.

## CCCCCCC(C)(C)c1cc(O)c2c(c1)OC(C)(C)[C@@H]1CC=C(C(=O)O)C[C@@H]21 [AJA, dimethylheptyl-THC-11-oic acid]
hRXRα
  activation of reporter via RXRα: failed to activate the reporter
PPARα
  activation of PPARα: no further activation was observed
